Measurements published in publication PMC4195943, “A novel small-molecule MRCK inhibitor blocks cancer cell invasion” (Cell Communication and Signaling : CCS, 2014).

How the values were obtained:
[1] = biological target: T1, MRCKβ (Homo sapiens, UniProt Q9Y5S2); test: IMAP fluorescence polarization kinase assay, MRCKβ; assay type: biochemical; settings: in vitro, 1 μM ATP
T1 construct: purchased Life Technologies
Procedure: MRCKα, MRCKβ, ROCK1 and ROCK2 assays were performed using an IMAP fluorescence polarization assay format (Molecular Devices Inc.). 8–12 nM of each kinase (Life Technologies) was incubated for 60 min at room temperature with 100 nM FAM-S6-ribosomal protein derived peptide (synthesized by Alta Biosciences, University of Birmingham UK) in the presence of 1 μM ATP and 0.5 mM MgCl2 in 20 mM Tris buffer (pH 7.4) containing 0.01% Tween-20 and 1 mM DTT (MRCKα and β); or 1 μM ATP, 10 mM MgCl2 in 20 mM Tris buffer (pH 7.5) containing 0.25 mM EGTA 0.01% Triton X-100 and 1 mM DTT (ROCK1 and ROCK2). Typically, dose response analyses were performed over concentration ranges from 0.005 - 100 μM. Reactions were stopped by adding 2 assay volumes of 0.25% (v/v) IMAP binding reagent in 1× IMAP binding buffer A (Molecular Devices). After 30 min incubation to allow binding reagent to bind phosphorylated peptide, fluorescence polarization was measured on a Tecan Saphire^2 plate reader at excitation (470 nm) and emission (530 nm) wavelengths. Inhibition was calculated using no inhibitor and no enzyme controls as 0 and 100% inhibition, respectively.

[2] = biological target: ROCK1 (Homo sapiens, UniProt Q13464); test: MLC phosphorylation in MDA-MB-231 cells expressing doxycycline-induced ROCK1 kinase domain (quantitative western blot); parameters: The kinase domains of MRCKβ (1–473), ROCK1 (1–535) or ROCK2 (1–532) were gene synthesized; expressed in transfected cells; host or cells: MDA-MB-231 D3H2LN-Luc Tet3G cells, pTRE3G-ROCK1 (1–535); settings: doxycycline-induced MDA-MB-231, 60 minutes treatment; read-out: cell based EC50, MLC phosphorylation induced by ROCK1
Sequence of ROCK1 (Q13464 1-535): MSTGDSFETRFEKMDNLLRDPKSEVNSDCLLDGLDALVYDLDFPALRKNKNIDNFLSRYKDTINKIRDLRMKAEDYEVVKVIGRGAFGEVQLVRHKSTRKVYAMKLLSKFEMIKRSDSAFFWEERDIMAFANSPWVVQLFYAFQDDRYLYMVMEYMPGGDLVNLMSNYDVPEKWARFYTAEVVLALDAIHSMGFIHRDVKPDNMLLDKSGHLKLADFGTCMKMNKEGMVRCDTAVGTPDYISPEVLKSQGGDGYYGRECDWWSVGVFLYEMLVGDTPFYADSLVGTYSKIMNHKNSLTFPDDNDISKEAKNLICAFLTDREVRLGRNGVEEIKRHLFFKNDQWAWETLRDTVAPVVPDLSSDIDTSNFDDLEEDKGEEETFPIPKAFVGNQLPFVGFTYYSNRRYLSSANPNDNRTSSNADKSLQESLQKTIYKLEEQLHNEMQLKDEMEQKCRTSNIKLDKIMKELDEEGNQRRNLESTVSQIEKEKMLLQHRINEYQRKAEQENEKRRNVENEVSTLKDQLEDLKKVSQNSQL
Procedure: (A) MDA-MB-231 breast cancer cells expressing doxycycline inducible ROCK1, ROCK2 or MRCKβ kinase domains were established as indicated. Following treatment with doxycycline for 18 hours to induce expression, cell lysates were western blotted with antibodies as indicated. […] All results are shown as mean ± standard error of n = 4 independent replicates.
(§1) MDA-MB-231 D3H2LN-Luc cells (Caliper LifeScience) were grown in MEM/EBSS (Hyclone) supplemented with 10% fetal bovine serum (FBS) (Gibco), 1 mM Sodium Pyruvate (Sigma) 2 mM L-glutamine (Gibco), 1× MEM non-essential amino acids (Gibco) plus penicillin-streptomycin (10 Units/ml and 10 μg/ml respectively) at 37°C in 5% CO2 in a humidified incubator. MDA-MB-231 D3H2LN-Luc TetOn MRCKβ, ROCK1 and ROCK2 selective cell lines were grown in the same media with 10% FBS replaced with 10% Tet System Approved FBS (Clontech).
(§2) The kinase domains of MRCKβ (1–473), ROCK1 (1–535) or ROCK2 (1–532) were gene synthesized (Genscript) and subcloned into pTRE3G (Clontech). MDA-MB-231 D3H2LN-Luc Tet3G cells were co-transfected with pTRE3G-MRCKβ (1–473), pTRE3G-ROCK1 (1–535) or pTRE3G-ROCK2 (1–532), together with a linear Pur^r-selection marker using Xfect transfection reagent according to manufacturer’s instructions. […] Each clone was treated with or without doxycycline (1 μg/ml) for 24 hours and kinase domain expression and activity determined by western blotting. […]

[3] = biological target: ROCK2 (Homo sapiens, UniProt O75116); test: MLC phosphorylation in MDA-MB-231 cells expressing doxycycline-induced ROCK2 kinase domain (quantitative western blot); parameters: The kinase domains of MRCKβ (1–473), ROCK1 (1–535) or ROCK2 (1–532) were gene synthesized; expressed in transfected cells; host or cells: MDA-MB-231 D3H2LN-Luc Tet3G cells, pTRE3G-ROCK2 (1–532); settings: doxycycline-induced MDA-MB-231, 60 minutes treatment; read-out: cell based EC50, MLC phosphorylation induced by ROCK2
Sequence of ROCK2 (O75116 1-532): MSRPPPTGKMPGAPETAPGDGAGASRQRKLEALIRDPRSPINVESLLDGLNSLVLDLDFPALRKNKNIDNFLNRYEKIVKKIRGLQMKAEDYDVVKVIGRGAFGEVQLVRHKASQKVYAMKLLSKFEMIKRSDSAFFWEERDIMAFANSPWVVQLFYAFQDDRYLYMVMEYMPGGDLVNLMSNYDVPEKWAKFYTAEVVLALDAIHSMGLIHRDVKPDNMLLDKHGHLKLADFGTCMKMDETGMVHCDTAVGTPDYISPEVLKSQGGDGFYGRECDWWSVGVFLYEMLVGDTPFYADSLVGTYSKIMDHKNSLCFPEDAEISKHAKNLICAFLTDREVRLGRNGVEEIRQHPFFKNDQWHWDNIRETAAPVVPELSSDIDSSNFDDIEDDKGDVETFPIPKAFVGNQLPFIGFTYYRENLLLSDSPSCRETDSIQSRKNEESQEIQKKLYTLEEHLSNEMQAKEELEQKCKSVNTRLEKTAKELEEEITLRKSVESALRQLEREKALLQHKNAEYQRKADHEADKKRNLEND
Procedure: (A) MDA-MB-231 breast cancer cells expressing doxycycline inducible ROCK1, ROCK2 or MRCKβ kinase domains were established as indicated. Following treatment with doxycycline for 18 hours to induce expression, cell lysates were western blotted with antibodies as indicated.
as §1, §2

T1 sequence (Q9Y5S2 whole entry): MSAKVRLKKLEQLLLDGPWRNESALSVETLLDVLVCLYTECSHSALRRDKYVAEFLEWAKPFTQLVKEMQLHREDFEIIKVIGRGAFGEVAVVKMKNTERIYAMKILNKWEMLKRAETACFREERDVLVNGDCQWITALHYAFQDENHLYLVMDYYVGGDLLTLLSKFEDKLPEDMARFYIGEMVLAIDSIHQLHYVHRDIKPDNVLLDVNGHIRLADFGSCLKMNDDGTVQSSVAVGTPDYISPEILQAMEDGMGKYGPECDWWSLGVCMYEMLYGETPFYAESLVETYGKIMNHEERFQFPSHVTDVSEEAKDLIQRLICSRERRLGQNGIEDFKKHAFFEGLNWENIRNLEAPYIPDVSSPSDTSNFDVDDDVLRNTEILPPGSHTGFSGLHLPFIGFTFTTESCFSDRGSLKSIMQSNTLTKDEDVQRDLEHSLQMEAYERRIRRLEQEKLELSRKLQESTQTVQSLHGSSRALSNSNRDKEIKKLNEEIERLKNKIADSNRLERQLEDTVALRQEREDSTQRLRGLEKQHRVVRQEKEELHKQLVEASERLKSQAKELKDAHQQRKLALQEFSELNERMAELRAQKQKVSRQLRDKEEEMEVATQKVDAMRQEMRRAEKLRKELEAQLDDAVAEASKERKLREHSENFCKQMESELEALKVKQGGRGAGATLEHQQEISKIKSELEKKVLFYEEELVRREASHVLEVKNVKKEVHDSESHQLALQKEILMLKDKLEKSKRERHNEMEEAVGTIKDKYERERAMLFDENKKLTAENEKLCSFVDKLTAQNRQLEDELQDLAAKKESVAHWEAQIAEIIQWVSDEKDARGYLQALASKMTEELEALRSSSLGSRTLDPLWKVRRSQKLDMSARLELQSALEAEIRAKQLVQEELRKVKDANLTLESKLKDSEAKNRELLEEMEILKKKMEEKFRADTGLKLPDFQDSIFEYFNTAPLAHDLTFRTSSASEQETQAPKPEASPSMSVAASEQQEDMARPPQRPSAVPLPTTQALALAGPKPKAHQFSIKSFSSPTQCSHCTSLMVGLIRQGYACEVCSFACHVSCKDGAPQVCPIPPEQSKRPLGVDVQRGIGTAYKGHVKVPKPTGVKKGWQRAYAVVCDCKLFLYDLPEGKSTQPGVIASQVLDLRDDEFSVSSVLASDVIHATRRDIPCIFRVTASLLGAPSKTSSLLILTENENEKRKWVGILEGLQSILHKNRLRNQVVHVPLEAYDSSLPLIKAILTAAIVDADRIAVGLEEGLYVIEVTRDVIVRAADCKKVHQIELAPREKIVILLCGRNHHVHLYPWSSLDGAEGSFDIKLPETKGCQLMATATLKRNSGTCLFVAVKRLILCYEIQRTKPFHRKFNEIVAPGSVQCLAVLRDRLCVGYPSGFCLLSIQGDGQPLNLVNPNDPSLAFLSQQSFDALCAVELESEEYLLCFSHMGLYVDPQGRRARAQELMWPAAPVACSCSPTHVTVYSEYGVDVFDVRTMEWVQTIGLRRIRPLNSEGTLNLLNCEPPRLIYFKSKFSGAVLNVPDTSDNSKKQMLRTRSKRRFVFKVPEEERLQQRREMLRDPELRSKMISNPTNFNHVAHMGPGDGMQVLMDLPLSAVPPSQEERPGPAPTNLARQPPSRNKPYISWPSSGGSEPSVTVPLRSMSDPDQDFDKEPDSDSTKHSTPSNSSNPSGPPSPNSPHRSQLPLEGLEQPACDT

IC50 [1]	EC50 [2]	EC50 [3]	Compound
1450 nM	–	–	C[C@@H](N)[C@H]1CC[C@H](C(=O)Nc2ccncc2)CC1 [Y27632, reference compound]
–	501 nM	447 nM	O=C(Nc1cn[nH]c1-c1ccccn1)c1nn(C2CCNCC2)cc1Cl [BDP5290, 4-chloro-1-(4-piperidyl)-N-[5-(2-pyridyl)-1H-pyrazol-4-yl]pyrazole-3-carboxamide]
